Measured values: US12581252B2, “Substituted pyrrolo[3,4-b]pyridines as PI3K-α inhibitors” (Relay Therapeutics, Inc., priority 2020, dated 2026)

Target: H1047R PIK3CA enzyme (Homo sapiens, UniProt P42336, H1047R)
Assay: ADP-Glo Biochemical PIK3CA Kinase Assay

Chain of H1047R PIK3CA enzyme (P42336 whole entry H1047R): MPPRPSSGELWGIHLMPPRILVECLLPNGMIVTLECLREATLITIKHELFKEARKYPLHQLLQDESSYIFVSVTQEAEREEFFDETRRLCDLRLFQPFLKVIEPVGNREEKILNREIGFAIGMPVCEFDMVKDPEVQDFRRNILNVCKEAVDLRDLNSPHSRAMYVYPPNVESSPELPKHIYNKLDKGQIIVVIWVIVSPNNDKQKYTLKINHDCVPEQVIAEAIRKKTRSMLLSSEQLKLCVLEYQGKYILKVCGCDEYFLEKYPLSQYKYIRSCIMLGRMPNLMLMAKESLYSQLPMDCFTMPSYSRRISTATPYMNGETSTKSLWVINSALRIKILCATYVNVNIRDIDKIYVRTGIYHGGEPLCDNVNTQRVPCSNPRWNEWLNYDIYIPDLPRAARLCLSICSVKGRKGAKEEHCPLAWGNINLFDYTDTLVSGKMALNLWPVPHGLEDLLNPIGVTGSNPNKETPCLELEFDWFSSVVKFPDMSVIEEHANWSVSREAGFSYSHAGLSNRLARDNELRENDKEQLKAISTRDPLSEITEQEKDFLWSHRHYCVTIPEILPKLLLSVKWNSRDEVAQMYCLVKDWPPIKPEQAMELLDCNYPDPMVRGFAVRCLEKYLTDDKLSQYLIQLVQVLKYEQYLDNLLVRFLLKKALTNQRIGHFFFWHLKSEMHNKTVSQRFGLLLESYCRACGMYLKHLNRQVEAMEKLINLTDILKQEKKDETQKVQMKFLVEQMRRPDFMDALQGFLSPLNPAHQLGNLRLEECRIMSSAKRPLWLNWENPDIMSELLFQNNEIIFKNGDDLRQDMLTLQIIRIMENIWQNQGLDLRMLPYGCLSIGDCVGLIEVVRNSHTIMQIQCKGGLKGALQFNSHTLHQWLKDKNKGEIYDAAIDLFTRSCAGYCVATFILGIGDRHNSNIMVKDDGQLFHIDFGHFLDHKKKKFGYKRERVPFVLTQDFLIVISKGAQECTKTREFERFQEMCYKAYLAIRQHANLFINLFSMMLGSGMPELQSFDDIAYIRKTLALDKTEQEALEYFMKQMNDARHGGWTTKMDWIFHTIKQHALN
Chain of H1047R PIK3CA enzyme (P27986 whole entry partner): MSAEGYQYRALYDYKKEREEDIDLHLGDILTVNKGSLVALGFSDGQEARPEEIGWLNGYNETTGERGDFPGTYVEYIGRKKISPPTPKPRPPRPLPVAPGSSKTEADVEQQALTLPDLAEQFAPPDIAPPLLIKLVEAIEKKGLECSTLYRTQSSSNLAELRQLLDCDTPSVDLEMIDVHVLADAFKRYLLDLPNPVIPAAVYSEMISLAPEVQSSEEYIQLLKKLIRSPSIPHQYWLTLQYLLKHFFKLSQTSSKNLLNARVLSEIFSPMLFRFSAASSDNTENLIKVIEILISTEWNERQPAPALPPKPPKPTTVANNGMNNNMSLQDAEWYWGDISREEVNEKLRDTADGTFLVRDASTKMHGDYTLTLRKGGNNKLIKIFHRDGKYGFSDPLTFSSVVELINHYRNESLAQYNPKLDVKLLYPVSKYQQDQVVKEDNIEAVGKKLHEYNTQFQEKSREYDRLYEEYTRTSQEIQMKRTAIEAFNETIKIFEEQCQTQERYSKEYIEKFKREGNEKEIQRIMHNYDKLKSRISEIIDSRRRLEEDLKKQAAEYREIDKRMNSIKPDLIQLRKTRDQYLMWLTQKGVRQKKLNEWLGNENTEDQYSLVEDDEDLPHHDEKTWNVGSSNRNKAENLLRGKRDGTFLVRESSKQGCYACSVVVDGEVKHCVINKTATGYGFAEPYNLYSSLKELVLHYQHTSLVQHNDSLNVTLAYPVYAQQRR

SMILES	IC50 [nM]
O=C1NC(c2cc(F)ccc2Cl)c2c(Nc3ncc(C(F)(F)F)cc3F)cc(Br)cc21 (stereo not drawn) [Compound I-1118]	500 to 1000
O=C1NC(c2cc(F)ccc2Cl)c2c(Nc3cc(CO)c(C(F)(F)F)cn3)cccc21 (stereo not drawn) [Compound I-1377]	10000 to 100000
Cc1ccccc1C1NC(=O)c2cccc(NC(=O)c3cc(=O)[nH]c4ccccc34)c21 (stereo not drawn) [Compound I-30]	10000 to 100000
O=C(Nc1cc(Br)cc2c1C(c1cc(F)ccc1Cl)NC2=O)NC1(CC(F)(F)F)CCOCC1 (stereo not drawn) [Compound I-1953]	10000 to 100000
CC(C)(O)c1cc(NC(=O)c2cc(F)cc(C(F)(F)F)c2)c2c(c1)C(=O)N[C@@H]2c1cc(F)ccc1Cl [Compound I-190]	1000 to 10000
O=C(Nc1cc(-c2ccc(=O)n(C3CC3)c2)cc2c1[C@@H](c1cc(F)ccc1Cl)NC2=O)c1cc(F)cc(C(F)(F)F)c1 [Compound I-744]	1000 to 10000
O=C1NC(c2cc(F)ccc2Cl)c2c(NC(=O)n3nc(O)c4ccccc43)cccc21 (stereo not drawn) [Compound I-2315]	1000 to 10000
C[C@@H](CCC(F)(F)F)C(=O)Nc1cccc2c1[C@@H](c1cc(F)ccc1Cl)NC2=O [Compound I-2141]	10000 to 100000
Cc1ccccc1C1NC(=O)Nc2cccc(OC(=O)c3csc4ccccc34)c21 (stereo not drawn) [Compound I-295]	1000 to 10000
O=C1Cc2cccc(C3NC(=O)c4cccc(NC(=O)c5cc(F)cc(C(F)(F)F)c5)c43)c2N1 (stereo not drawn) [Compound I-810]	10000 to 100000
O=C(Nc1cc(Br)cc2c1C(c1cc(F)ccc1Cl)NC2=O)c1cncc(Cl)c1 (stereo not drawn) [Compound I-909]	1000 to 10000
COc1c(Cl)cc(F)cc1C(=O)Nc1cc(Br)cc2c1C(c1cc(F)ccc1Cl)NC2=O (stereo not drawn) [Compound I-834]	1000 to 10000
O=C(Nc1cccc2c1C(C(=O)N1CCCCC1)NC2=O)c1cc(F)cc(C(F)(F)F)c1 (stereo not drawn) [Compound I-2041]	10000 to 100000
Nc1ccc(C(=O)Nc2cc(Br)cc3c2C(c2cc(F)ccc2Cl)NC3=O)cc1C(F)(F)F (stereo not drawn) [Compound I-719]	1000 to 10000
O=C(Nc1cc(-c2ccc3ncnn3c2)cc2c1C(c1cc(F)ccc1Cl)NC2=O)C(=O)c1ccccc1 (stereo not drawn) [Compound I-1730]	1000 to 10000
O=C(Nc1cc(-c2ccc3ncnn3c2)nc2c1C(C1CCCC1)NC2=O)c1cc(F)cc(C(F)(F)F)c1 (stereo not drawn) [Compound I-1654]	10000 to 100000
O=C(Nc1cccc2c1[C@@H](C1CCC(F)(F)CC1)NC2=O)c1cc(F)cc(C(F)(F)F)c1 [Compound I-2072]	10000 to 100000
Cn1cc(-c2ccc(C3NC(=O)c4cccc(NC(=O)c5cc(F)cc(C(F)(F)F)c5)c43)c(Cl)c2)cn1 (stereo not drawn) [Compound I-425]	10000 to 100000
CS(=O)(=O)c1cc(F)cc(C(=O)Nc2cc(Br)cc3c2C(c2cc(F)ccc2Cl)NC3=O)c1 (stereo not drawn) [Compound I-912]	10000 to 100000
O=C(Nc1cc(Br)cc2c1C(c1cc(F)ccc1Cl)NC2=O)c1cc(C(F)(F)F)ccc1F (stereo not drawn) [Compound I-515]	1000 to 10000
O=C1NC(c2cc(F)ccc2Cl)c2c1cc(-c1ccc3ncnn3c1)cc2N1CCn2ncnc2C1 (stereo not drawn) [Compound I-2018]	10000 to 100000
O=C(Nc1cccc2c1C(C1CCCOC1)NC2=O)c1cc(F)cc(C(F)(F)F)c1 (racemic) [Compound I-1958]	10000 to 100000
N#Cc1cc2nccn2cc1-c1cc(NC(=O)c2cc(F)cc(C(F)(F)F)c2)c2c(c1)C(=O)N[C@@H]2c1cc(F)ccc1Cl [Compound I-1585]	500 to 1000
O=C(Nc1cc(OC2CS(=O)(=O)C2)cc2c1C(c1cc(F)ccc1Cl)NC2=O)c1cc(F)cc(C(F)(F)F)c1 (stereo not drawn) [Compound I-1149]	1000 to 10000

The next lines start with the values.

IC50 [nM]	SMILES
100 to 500	Cc1ccccc1C1NC(=O)c2c(C(N)=O)ncc(NC(=O)c3cc(F)cc(C(F)(F)F)c3)c21 (stereo not drawn) [Compound I-265]
≤ 100	N#CCc1cc(NC(=O)c2cc(F)cc(C(F)(F)F)c2)c2c(c1)C(=O)NC2c1cc(F)ccc1Cl (stereo not drawn) [Compound I-533]
100 to 500	Cc1ccccc1C1NC(=O)c2cccc(NC(=O)c3cc(F)cc(C(F)(F)F)c3)c21 (stereo not drawn) [Compound I-2]
≤ 100	COc1ccc(-c2cc(NC(=O)c3cc(F)cc(C(F)(F)F)c3)c3c(c2)C(=O)NC3c2cc(F)ccc2Cl)nn1 (stereo not drawn) [Compound I-1438]
≤ 100	O=C(Nc1cc(CC2(O)CC2)cc2c1C(c1cc(F)ccc1Cl)NC2=O)c1cc(F)cc(C(F)(F)F)c1 (stereo not drawn) [Compound I-644]
≤ 100	O=C(Nc1cc(Br)cc2c1[C@H](c1cccc(F)c1Cl)NC2=O)c1cc(F)cc(C(F)(F)F)c1 [Compound I-669]
100 to 500	CNS(=O)(=O)Cc1cc(NC(=O)c2cc(F)cc(C(F)(F)F)c2)c2c(c1)C(=O)N[C@@H]2c1cc(F)ccc1Cl [Compound I-1533]
100 to 500	Cc1c(F)cccc1C1NC(=O)c2cc(Br)cc(NC(=O)c3cc(F)cc(C(F)(F)F)c3)c21 (stereo not drawn) [Compound I-751]
≤ 100	O=C(Nc1cc(Br)cc2c1C(c1cc(F)ccc1Cl)NC2=O)c1cc(F)cc([N+](=O)[O-])c1 (stereo not drawn) [Compound I-832]
≤ 100	O=C(Nc1cc(-c2ccc3ocnc3c2)cc2c1C(c1cc(F)ccc1Cl)NC2=O)c1cc(F)cc(C(F)(F)F)c1 (stereo not drawn) [Compound I-1415]
≤ 100	O=C(Nc1cc(N2CCn3ccnc3C2)cc2c1C(c1cc(F)ccc1Cl)NC2=O)c1cc(F)cc(C(F)(F)F)c1 (stereo not drawn) [Compound I-1236]
≤ 100	Cc1ccccc1C1NC(=O)c2c(CO)ccc(NC(=O)c3csc4ccccc34)c21 (stereo not drawn) [Compound I-224]
≤ 100	O=C(Nc1cc(Br)cc2c1[C@H](c1ccccc1C(F)F)NC2=O)c1cc(F)cc(C(F)(F)F)c1 [Compound I-789]
100 to 500	O=C(Nc1cc(Cl)nc2c1[C@H](c1cc(F)ccc1Cl)NC2=O)c1cc(F)cc(C(F)(F)F)c1 [Compound I-616]
100 to 500	O=C(Nc1cc(CNCc2ccccc2)nc2c1C(c1cc(F)ccc1Cl)NC2=O)c1cc(F)cc(C(F)(F)F)c1 (stereo not drawn) [Compound I-444]
100 to 500	O=C(Nc1cccc2c1C(c1ccccc1C1CC1)NC2=O)c1cc(F)cc(C(F)(F)F)c1 (stereo not drawn) [Compound I-925]
100 to 500	N#Cc1cc(NC(=O)N2C[C@H](O)c3cc(F)ccc32)c2c(c1)C(=O)N[C@H]2c1cc(F)ccc1Cl (single isomer, unassigned) [Compound I-2491]
100 to 500	CN1CCN(c2cc(NC(=O)c3cc(F)cc(C(F)(F)F)c3)c3c(n2)C(=O)NC3c2cc(F)ccc2Cl)CC1 (stereo not drawn) [Compound I-291]
≤ 100	CN1CCN(c2cc(NC(=O)c3cc(F)cc(C(F)(F)F)c3)c3c(c2)C(=O)NC3c2cc(F)ccc2Cl)CC1=O (stereo not drawn) [Compound I-1249]
100 to 500	O=C(Nc1cc(-c2ccncc2)nc2c1C(c1cc(F)ccc1Cl)NC2=O)c1cc(F)cc(Cl)c1 (stereo not drawn) [Compound I-458]
≤ 100	O=C(Nc1cc(C(O)c2ccccn2)cc2c1C(c1cc(F)ccc1Cl)NC2=O)c1cc(F)cc(C(F)(F)F)c1 (stereo not drawn) [Compound I-1278]
≤ 100	[2H][C@]1(c2cc(F)ccc2Cl)NC(=O)c2cc(-c3ccc4ncnn4c3)cc(NC(=O)c3cc(F)cc(C(F)(F)F)c3)c21 (single isomer, unassigned) [Compound I-1600]
≤ 100	N#CC1CC(c2cc(NC(=O)c3cc(F)cc(C(F)(F)F)c3)c3c(c2)C(=O)NC3c2cc(F)ccc2Cl)C1 (stereo not drawn) [Compound I-1175]
≤ 100	O=C(Nc1cc(-c2ccnn2C[C@@H]2CCOC2)cc2c1C(c1cc(F)ccc1Cl)NC2=O)c1cc(F)cc(C(F)(F)F)c1 (single isomer, unassigned) [Compound I-1407]
